Results reported in ChEMBL document CHEMBL1201862, “PubChem BioAssay data set” (2004).
Activity calls are given as the source filed them.

Legend:
Cytochrome P450 1A2 = target: T1, Cytochrome P450 1A2 (Homo sapiens, UniProt P05177);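 further: PubChem cytochrome P450 panel assay, CYP1A2 panel member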
T1 sequence (P05177 whole entry): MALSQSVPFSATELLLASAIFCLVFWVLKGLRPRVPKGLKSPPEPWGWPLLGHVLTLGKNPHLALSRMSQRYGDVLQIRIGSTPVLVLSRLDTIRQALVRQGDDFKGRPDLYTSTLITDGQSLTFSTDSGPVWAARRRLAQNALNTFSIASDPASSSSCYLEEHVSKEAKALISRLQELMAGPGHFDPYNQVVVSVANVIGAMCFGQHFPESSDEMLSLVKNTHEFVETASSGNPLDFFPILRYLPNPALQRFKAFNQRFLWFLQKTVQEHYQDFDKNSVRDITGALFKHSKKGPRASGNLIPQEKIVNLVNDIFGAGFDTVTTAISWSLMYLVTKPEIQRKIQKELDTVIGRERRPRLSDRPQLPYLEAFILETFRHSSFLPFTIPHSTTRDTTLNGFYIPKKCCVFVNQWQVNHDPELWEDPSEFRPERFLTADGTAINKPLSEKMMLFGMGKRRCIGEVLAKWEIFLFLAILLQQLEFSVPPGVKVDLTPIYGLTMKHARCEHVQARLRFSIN

[1] = target: T2, Corticotropin-releasing factor receptor 2/Corticotropin-releasing factor-binding protein (Homo sapiens, UniProt P24387+Q13324); assay: activators of CRF receptor 2 with binding protein – uHTS hits, confirmation (AID 602473); assay type: functional; details: read-out: EC50_Mean
T2 sequence (Q13324 whole entry): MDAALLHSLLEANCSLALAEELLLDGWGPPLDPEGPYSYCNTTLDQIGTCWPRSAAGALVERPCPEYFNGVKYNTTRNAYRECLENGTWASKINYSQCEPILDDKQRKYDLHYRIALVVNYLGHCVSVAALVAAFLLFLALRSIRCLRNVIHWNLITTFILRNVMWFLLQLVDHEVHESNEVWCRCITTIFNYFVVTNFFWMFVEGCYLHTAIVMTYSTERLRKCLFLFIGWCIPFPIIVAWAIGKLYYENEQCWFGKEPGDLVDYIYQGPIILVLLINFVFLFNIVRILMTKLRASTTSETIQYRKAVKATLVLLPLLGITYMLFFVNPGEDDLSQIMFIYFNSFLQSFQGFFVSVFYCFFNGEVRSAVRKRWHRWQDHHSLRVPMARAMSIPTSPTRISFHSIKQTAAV
T2 sequence (P24387 whole entry): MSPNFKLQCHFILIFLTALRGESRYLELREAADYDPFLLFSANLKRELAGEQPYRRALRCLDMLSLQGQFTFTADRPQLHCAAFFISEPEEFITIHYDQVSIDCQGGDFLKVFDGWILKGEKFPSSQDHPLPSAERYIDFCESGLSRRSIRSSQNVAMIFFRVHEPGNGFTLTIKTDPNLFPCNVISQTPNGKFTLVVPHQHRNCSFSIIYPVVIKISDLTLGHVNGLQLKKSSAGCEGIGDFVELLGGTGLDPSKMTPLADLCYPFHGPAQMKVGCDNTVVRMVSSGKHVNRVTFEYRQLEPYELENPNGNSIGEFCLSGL

Vero [2] = assay: cells; assay type: functional; details: Chlorocebus sabaeus
Vero [3] = assay: cells; assay type: functional, cell-based; details: Chlorocebus sabaeus
[4] = target: T3, Carboxy-terminal domain RNA polymerase II polypeptide A small phosphatase 1 (Homo sapiens, UniProt Q9GZU7); assay: inhibitors of CTDSP1, concentration-response testing, biochemical assay, absorbance-based, actives from ultra-high-throughput screening (AID 540297); assay type: functional
T3 sequence (Q9GZU7 whole entry): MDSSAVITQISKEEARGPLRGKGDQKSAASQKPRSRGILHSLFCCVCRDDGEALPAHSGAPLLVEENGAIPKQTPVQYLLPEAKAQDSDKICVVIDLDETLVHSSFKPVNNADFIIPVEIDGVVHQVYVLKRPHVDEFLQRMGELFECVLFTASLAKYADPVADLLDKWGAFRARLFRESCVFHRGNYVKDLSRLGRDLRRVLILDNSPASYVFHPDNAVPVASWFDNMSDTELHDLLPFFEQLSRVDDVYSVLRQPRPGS

[5] = cytotoxicity in HEK-293T cells, dose response, cytotoxicity control for BCR NF-kB inhibitor project, luminescence, B-cell screen hits (AID 489021); assay type: functional, cell-based;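 further: HEK-293T cells carrying an NF-kB luciferase reporter; cells exposed to compound for about 14 hours before viability readout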
Prothrombin = Prothrombin (Homo sapiens, UniProt P00734); assay: Thrombin 1536 HTS Dose Response Confirmation. [Related pubchem assays: 1046 (Thrombin 1536 HTS; hits were confirmed in this assay)]; assay type: functional
[6] = Luminescence Cell-Based Dose Response HTS to Identify Inhibitors of 5'UTR Stem-Loop Driven Prion Protein mRNA Translation in H4 Neuroglioblastoma Cells. [Related pubchem assays: 1827 (Project Summary), 1813 (Primary HTS)]; assay type: functional
[7] = inhibitors of firefly luciferase expression or activity, dose response, H4 neuroglioma cells, luminescence (AID 1990); assay type: functional, cell-based
[8] = cytotoxicity toward DRD oncogenic fibroblasts, dose response, cell-based, non-viral oncogenic, luminescence (AID 1934); assay type: functional; details: Homo sapiens
BJ [9] = assay: cytotoxicity toward Ras-transformed BJeLR fibroblasts, dose response, cell-based, alamar blue fluorescence, cherrypicked samples (AID 2631); assay type: functional; details: Homo sapiens;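 further: confirmatory dose-response assay in RAS-dependent BJ fibroblasts engineered with TERT, LT and ST, with cytotoxicity read by fluorescence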
BJ [10] = assay: cells; assay type: functional, cell-based; details: Homo sapiens
BJ [11] = assay: cytotoxicity toward BJ-TERT-LT-ST fibroblasts, dose response, cell-based, RAS-independent, luminescence (AID 1935); assay type: functional; details: Homo sapiens;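 further: BJ fibroblasts immortalized with TERT plus LT and ST oncogenes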
[12] = target: T4, RNA-binding protein pos-1 (Caenorhabditis elegans, UniProt G5EF15); assay: inhibitors of POS-1/mex-3 RNA binding, dose response, biochemical, fluorescence polarization (AID 1964);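 further: purified POS-1 fused to maltose binding protein made in E. coli; potency of compounds blocking POS-1 binding to fluorescent RNA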
T4 sequence (G5EF15 whole entry): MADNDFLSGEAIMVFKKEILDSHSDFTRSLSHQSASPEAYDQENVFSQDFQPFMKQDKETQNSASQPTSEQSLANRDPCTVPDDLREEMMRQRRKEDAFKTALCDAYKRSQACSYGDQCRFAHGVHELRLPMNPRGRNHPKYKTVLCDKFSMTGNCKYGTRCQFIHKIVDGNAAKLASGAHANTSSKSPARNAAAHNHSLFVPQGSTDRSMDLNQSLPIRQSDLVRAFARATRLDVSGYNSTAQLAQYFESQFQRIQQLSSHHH

BJ [13] = assay: cytotoxicity toward BJ-TERT fibroblasts, dose response, cell-based, RAS-independent, luminescence (AID 1933); assay type: functional; details: Homo sapiens
[14] = target: T5, Zinc finger protein mex-5 (Caenorhabditis elegans, UniProt Q9XUB2); assay: MEX-5/TCR-2 RNA interaction inhibitors, dose response, biochemical, C. elegans, fluorescence polarization (AID 1960)
T5 sequence (Q9XUB2 whole entry): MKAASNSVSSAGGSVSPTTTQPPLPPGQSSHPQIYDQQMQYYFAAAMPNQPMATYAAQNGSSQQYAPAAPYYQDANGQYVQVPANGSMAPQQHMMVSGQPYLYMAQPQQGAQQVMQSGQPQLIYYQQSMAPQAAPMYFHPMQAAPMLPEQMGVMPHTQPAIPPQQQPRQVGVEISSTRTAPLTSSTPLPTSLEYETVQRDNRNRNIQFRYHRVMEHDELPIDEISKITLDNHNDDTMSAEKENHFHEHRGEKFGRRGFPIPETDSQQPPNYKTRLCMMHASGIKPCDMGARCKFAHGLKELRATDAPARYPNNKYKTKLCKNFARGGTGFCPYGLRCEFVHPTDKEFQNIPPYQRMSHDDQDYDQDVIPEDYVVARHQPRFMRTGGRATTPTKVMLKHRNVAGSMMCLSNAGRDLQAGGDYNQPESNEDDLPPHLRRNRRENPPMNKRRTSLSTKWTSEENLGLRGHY

Cytochrome P450 3A4 = Cytochrome P450 3A4 (Homo sapiens, UniProt P08684);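 further: CYP3A4 tested as one member of a cytochrome P450 panel screen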
Aspartyl aminopeptidase = target: T6, Aspartyl aminopeptidase (Plasmodium falciparum 3D7, UniProt Q8I2J3)
T6 sequence (Q8I2J3 whole entry): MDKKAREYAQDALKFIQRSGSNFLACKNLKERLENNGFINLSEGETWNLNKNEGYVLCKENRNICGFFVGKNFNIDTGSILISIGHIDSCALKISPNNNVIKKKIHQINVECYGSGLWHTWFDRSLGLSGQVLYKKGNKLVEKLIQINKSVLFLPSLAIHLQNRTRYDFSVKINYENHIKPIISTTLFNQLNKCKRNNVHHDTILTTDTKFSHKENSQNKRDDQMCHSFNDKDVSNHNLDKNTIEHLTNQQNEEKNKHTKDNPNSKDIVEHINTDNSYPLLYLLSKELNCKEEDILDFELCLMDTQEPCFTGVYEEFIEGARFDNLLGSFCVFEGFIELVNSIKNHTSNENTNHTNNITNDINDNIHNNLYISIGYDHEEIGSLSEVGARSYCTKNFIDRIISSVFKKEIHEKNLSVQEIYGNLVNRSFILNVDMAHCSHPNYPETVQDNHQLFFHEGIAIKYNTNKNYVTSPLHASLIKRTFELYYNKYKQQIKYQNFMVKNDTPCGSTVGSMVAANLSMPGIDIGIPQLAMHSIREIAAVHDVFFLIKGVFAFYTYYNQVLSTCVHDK

Procathepsin L = Procathepsin L (Homo sapiens, UniProt P07711)
Cytochrome P450 2C19 = Cytochrome P450 2C19 (Homo sapiens, UniProt P33261); assay: Cytochrome panel assay with activity outcomes. Panel member name: p450-cyp2c19 Compounds with AC50 equal or less than 10 uM are considered active; assay type: functional; details: read-out: AC50
cells = assay type: functional, cell-based; details: HEK-CNG
[15] = inhibitors of intracellular T. cruzi replication, confirmation, NIH3T3 host cells, beta-gal luminescence (AID 2044); assay type: functional, cell-based;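 further: intracellular parasites grown in NIH/3T3 mouse fibroblasts as host cells; luminescent beta-galactosidase reporter signal from transgenic T. cruzi replicating inside host cells; inhibitors lower the luminescence signal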
[16] = cytotoxicity toward NIH3T3 fibroblasts, dose response, counter-screen, cell-based, ATP luminescence, mouse fibroblasts (AID 2010); assay type: functional;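 further: cells exposed to compound for about 90 hours before reading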
Galanin receptor type 3 = target: T7, Galanin receptor type 3 (Homo sapiens, UniProt O60755); assay: Fluorescence-based cell-based primary high throughput dose response assay to identify antagonists of the Galanin Receptor 3 (GalR3).; assay type: functional
T7 sequence (O60755 whole entry): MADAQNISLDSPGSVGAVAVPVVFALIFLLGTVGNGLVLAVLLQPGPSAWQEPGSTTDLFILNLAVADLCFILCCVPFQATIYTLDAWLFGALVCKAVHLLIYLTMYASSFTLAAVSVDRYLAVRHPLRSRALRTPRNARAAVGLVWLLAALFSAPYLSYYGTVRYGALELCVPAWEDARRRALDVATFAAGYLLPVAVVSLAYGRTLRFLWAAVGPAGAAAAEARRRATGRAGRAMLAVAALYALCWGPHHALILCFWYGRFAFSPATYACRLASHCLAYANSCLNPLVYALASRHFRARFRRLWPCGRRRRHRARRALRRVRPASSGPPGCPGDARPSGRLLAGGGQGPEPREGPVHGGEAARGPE

[17] = Luminescence Cell-Based Dose Confirmation HTS to Identify Activators of 5'UTR Stem-Loop Driven Alpha-Synuclein mRNA Translation in H4 Neuroglioblastoma Cells. [Related pubchem assays: 1829 (Project Summary), 1814 (Primary HTS)]; assay type: functional
[18] = microbe, parasite or virus in culture; assay type: functional; details: Mycobacterium tuberculosis
H4 = assay: Luminescence Cell-Based Dose Response HTS to Identify Activators of 5'UTR Stem-Loop Driven Prion Protein mRNA Translation in H4 Neuroglioblastoma Cells. [Related pubchem assays: 1829 (Project Summary), 1814 (Primary HTS)]; assay type: functional; details: Homo sapiens
[19] = Luminescence Cell-Based Dose Response HTS to Identify Activators of Luciferase Translation or Activity in H4 […] Cells. [Related pubchem assays: 1829 (Project Summary), 1814 (Primary HTS)]; assay type: functional
[20] = inhibitors of SNCA 5'UTR-driven reporter translation, confirmation, H4 neuroglioma cells, luminescence (AID 1988); assay type: functional, cell-based

Chain of Cytochrome P450 2C19 (P33261 whole entry): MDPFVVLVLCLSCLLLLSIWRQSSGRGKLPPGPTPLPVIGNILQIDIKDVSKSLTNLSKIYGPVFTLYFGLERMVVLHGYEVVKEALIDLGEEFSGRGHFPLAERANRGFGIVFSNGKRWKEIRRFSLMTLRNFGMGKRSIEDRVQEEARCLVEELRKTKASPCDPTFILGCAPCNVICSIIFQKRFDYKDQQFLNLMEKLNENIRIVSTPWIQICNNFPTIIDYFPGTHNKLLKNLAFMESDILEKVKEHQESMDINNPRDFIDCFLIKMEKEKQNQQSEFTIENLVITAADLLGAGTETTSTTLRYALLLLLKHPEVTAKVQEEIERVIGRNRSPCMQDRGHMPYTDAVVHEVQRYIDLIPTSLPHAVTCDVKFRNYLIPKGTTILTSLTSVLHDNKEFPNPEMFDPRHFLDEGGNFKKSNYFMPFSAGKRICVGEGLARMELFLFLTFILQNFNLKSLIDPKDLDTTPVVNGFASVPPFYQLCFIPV
Chain of Cytochrome P450 3A4 (P08684 whole entry): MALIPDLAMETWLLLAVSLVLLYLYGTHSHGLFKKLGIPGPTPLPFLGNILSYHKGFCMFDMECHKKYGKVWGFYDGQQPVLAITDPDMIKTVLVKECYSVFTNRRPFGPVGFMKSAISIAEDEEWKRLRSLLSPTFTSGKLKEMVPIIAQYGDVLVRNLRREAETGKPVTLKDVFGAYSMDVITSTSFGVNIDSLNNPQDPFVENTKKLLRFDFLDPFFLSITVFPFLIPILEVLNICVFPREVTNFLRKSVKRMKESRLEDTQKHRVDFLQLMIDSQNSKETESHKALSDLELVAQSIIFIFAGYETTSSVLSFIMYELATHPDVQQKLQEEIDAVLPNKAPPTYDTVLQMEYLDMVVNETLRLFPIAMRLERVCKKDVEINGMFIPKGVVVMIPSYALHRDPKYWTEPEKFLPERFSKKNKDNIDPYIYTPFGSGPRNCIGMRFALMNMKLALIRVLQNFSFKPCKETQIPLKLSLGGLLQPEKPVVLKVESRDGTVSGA
Chain of Procathepsin L (P07711 whole entry): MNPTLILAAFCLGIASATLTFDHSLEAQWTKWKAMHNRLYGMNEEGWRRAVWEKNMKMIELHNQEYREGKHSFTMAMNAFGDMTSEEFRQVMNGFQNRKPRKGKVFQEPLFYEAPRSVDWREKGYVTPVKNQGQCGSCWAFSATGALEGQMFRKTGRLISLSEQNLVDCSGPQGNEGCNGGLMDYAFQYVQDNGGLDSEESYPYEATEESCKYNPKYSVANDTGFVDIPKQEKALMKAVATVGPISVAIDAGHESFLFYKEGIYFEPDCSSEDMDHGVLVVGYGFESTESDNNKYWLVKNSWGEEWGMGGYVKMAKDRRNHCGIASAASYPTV

c1nnc(NCNc2nncs2)s1
AC50 (Cytochrome P450 1A2): 2 µM (inconclusive) | EC50 [1]: > 53 µM (inactive) | CC50 (Vero [2]): > 25 µM (active) | IC50 (Vero [3]): > 25 µM (active)

COc1ccc(/C=C2\SC(=S)N(CCC(=O)Nc3ccc(C(=O)O)cc3)C2=O)cc1
IC50 [4]: 2.63 µM (active) | IC50 [5]: > 80 µM (inactive)

Cc1ccc2nc(NC(=O)CSCC(=O)OCC(=O)c3ccc(Br)cc3)sc2c1
IC50 (Prothrombin): 0.0393 µM (active) | IC50 [5]: > 80 µM (inactive)

Cc1nc2cc(-c3ccc(Cl)cc3)nn2c(C)c1CCC(=O)NC(C)c1ccc2c(c1)OCCO2 (centres undefined)
EC50 [6]: 11.6 µM (active) | EC50 [7]: < 0.1 µM (active) | IC50 [5]: > 80 µM (inactive)

Cc1ccc(-c2nn3c(C)nnc3c3ccccc23)cc1S(=O)(=O)N1CCN(CCO)CC1
IC50 [5]: > 80 µM (inactive)

CCc1ccc(/C=C2/SC(=S)N(CCC(=O)Nc3cccnc3)C2=O)cc1
EC50 [8]: 12.8 µM (active) | EC50 (BJ [9]): > 66.7 µM (inactive) | EC50 (BJ [10]): > 150 µM (inconclusive) | EC50 (BJ [11]): > 75 µM (inconclusive) | IC50 [5]: > 80 µM (inactive) | EC50 [12]: 141 µM (active) | EC50 (BJ [13]): 2.88 µM (inconclusive) | EC50 [14]: > 300 µM (inconclusive)

Cc1ccc(N2C(=O)/C(=C/Nn3cnnc3)c3ccccc3C2=O)cc1
AC50 (Cytochrome P450 3A4): 15.8 µM (inconclusive) | IC50 (Aspartyl aminopeptidase): 1.67 µM (active) | IC50 (Procathepsin L): > 59.6 µM (not active) | AC50 (Cytochrome P450 2C19): 10 µM (inconclusive)

CC1(C)CC2CC(C)(CN2S(=O)(=O)c2ccc(C(=O)Nc3ccc(S(=O)(=O)N4CCOCC4)cc3)cc2)C1 (centres undefined)
EC50 (cells): > 29.9 µM (inactive) | EC50 [15]: 1.83 µM (active) | EC50 [16]: > 60 µM (not active) | IC50 [5]: > 80 µM (inactive) | IC50 (Galanin receptor type 3): 0.96 µM (active)

CC(C)C1N=C(c2ccc3c(c2)OCO3)CC(c2ccccc2O)N1 (centres undefined)
EC50 [17]: 16.6 µM (active) | CC50 [18]: 13.8 µM (active) | CC50 (Vero [2]): 14.7 µM (active) | EC50 (H4): 4.62 µM (active) | IC50 (Vero [3]): > 25 µM (active) | EC50 [19]: 15.4 µM (active)

Cc1ccc(CSc2nnc(SCC(=O)N/N=C/C=C/c3ccccc3[N+](=O)[O-])s2)cc1
EC50 [6]: 12.9 µM (active) | EC50 [20]: 12.1 µM (active) | EC50 [7]: 9.7 µM (active) | IC50 [5]: > 80 µM (inactive)
